From ChEMBL document CHEMBL1132824, “Highly specific inhibitory effect of three-component hybrid liposomes including sugar surfactants on the growth of glioma cells” (Bioorg Med Chem Lett, 2000)

Key:
U-251 [1] = assay: Compound alone was evaluated for inhibitory effect on growth of glioma (U251) cells; Ineffective; format: functional, cell-based; settings: Homo sapiens
U-251 [2] = assay: Compound along with Tween 20 and SucCn was evaluated for inhibitory effect on growth of glioma (U251) cells; Effective; format: functional, cell-based; settings: Homo sapiens

Row | Structure (SMILES) | Activity (U-251 [1]) | Activity (U-251 [2])
1 | CCCCCCCCCCCCCC(=O)OCC(COP(=O)([O-])OCC[N+](C)(C)C)OC(=O)CCCCCCCCCCCCC (stereo unspecified) | Ineffective | Effective
2 | CCCCCCCCCCCC(=O)OC[C@@H]1O[C@H](O[C@]2(CO)O[C@H](CO)[C@@H](O)[C@@H]2O)[C@@H](O)[C@@H](O)[C@@H]1O | Ineffective | Effective
3 | CCCCCCCCCC(=O)OC[C@@H]1OC(O[C@]2(CO)OC(CO)C(O)[C@@H]2O)[C@@H](O)[C@H](O)[C@H]1O (single isomer, unassigned) | Ineffective | Effective
